Assay results reported in ChEMBL document CHEMBL3886609, “Piperidylpyrimidine derivatives as modulators of protein kinase inhibitors and of vascular endothelial growth factor receptor 2” (2016).

Target: Vascular endothelial growth factor receptor 2 (Homo sapiens, UniProt P35968)
Assay: VEGFR2 Kinase Assay: Biochemical KDR kinase assays were performed in 96 well microtiter plates that were coated overnight with 75 ug/well of poly-Glu-Tyr (4:1) in 10 mM Phosphate Buffered Saline (PBS), pH 7.4. The coated plates were washed with 2 mls per well PBS+0.05% Tween-20 (PBS-T), blocked by incubation with PBS containing 1% BSA, then washed with 2 mls per well PBS-T prior to starting the reaction. Reactions were carried out in 100 uL reaction volumes containing 2.7 uM ATP in kinase buffer (50 mM Hepes buffer pH 7.4, 20 mM MgCl2, 0.1 mM MnCl2 and 0.2 mM Na3VO4). Test compounds were reconstituted in 100% DMSO and added to the reaction to give a final DMSO concentration of 5%. Reactions were initiated by the addition 20 ul per well of kinase buffer containing 200-300 ng purified cytoplasmic domain KDR protein (BPS Bioscience, San Diego, Calif.). Following a 15 minute incubation at 30° C., the reactions were washed 2 mls per well PBS-T. 100 ul of a monoclonal anti-phosphotyrosine antibody-peroxidase conjugate diluted 1:10,000 in PBS-T was added to the wells for 30 minutes. Following a 2 mls per well wash with PBS-Tween-20, 100 ul of 0-Phenylenediamine Dihydrochloride in phosphate-citrate buffer, containing urea hydrogen peroxide, was added to the wells for 7-10 minutes as a colorimetric substrate for the peroxidase. […]

Sequence of Vascular endothelial growth factor receptor 2 (P35968 whole entry, the tested form may be a part): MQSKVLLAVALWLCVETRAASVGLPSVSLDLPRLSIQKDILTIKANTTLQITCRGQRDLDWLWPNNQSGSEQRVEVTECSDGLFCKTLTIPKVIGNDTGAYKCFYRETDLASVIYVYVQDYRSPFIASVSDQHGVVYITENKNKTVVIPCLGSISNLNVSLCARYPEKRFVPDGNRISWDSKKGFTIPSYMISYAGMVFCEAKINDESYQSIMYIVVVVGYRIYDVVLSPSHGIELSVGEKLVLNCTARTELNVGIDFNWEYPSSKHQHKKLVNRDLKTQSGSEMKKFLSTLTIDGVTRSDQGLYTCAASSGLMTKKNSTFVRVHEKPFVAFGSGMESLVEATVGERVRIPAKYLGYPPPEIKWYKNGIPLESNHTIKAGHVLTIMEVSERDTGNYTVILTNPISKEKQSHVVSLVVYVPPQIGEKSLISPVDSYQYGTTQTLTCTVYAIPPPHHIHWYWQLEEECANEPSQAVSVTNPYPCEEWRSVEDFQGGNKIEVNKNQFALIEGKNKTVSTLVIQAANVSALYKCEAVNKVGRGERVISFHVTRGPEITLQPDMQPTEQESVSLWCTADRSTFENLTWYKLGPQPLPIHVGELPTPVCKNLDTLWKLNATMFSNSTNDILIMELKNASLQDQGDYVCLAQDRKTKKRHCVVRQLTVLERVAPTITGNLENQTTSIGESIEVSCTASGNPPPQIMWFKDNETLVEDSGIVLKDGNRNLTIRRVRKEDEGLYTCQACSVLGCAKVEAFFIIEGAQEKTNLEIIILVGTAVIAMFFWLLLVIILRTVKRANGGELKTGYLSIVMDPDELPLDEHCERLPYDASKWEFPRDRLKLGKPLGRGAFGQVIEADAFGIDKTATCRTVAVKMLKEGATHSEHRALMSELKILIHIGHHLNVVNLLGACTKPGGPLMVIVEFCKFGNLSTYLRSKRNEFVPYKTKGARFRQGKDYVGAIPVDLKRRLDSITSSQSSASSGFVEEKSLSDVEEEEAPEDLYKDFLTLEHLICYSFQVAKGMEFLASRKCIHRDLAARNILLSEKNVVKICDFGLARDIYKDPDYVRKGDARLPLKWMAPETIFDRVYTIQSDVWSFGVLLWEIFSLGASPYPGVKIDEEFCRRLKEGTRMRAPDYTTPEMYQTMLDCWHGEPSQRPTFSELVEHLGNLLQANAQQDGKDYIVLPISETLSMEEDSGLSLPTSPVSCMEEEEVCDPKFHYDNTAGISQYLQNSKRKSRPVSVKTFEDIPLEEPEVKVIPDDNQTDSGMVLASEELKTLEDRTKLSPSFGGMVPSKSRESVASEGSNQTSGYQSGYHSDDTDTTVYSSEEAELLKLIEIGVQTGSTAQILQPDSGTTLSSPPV

IC50: 11 nM
SMILES: O=C(c1cccnc1)N1CCc2nc(Nc3ccsc3)ncc2C1
